Measurements as given in ChEMBL document CHEMBL4627384, “l-Thyroxin and the Nonclassical Thyroid Hormone TETRAC Are Potent Activators of PPARγ” (J Med Chem, 2020).
Active and inactive are the calls of the source. No cut-off for these calls is given here.

How the values were obtained:
[1] = target: T1, Peroxisome proliferator-activated receptor gamma (Homo sapiens) (UniProt P37231); experiment: Agonist activity at PPARgamma in human HepG2 cells with THRB knockdown assessed as induction of CD36 mRNA expression incubated for 8 hrs by qPCR analysis; assay type: cell-based
T1 sequence (whole entry): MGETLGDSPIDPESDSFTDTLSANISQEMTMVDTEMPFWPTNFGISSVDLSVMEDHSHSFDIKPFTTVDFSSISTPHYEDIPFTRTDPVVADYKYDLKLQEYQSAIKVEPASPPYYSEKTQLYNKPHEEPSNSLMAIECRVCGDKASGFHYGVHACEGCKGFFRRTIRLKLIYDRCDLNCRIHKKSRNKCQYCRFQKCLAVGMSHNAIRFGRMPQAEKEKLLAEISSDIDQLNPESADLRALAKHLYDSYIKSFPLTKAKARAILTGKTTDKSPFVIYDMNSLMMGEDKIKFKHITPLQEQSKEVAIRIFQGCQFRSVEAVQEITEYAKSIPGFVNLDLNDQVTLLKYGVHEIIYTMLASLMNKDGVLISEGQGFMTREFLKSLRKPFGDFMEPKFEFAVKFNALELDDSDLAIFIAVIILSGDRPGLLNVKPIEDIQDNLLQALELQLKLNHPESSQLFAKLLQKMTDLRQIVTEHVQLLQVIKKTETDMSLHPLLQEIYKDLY

[2] = target: T2, Retinoic acid receptor RXR-alpha (Homo sapiens, UniProt P19793); experiment: Agonist activity at recombinant human pFA-CMV fused RXRalpha LBD expressed in HEK293T cells transfected with pFR-luciferase plasmid and pRL-SV40 plasmid incubated for 14 to 16 hrs by dual glo luciferase reporter gene assay; assay type: cell-based, HEK-293T; conditions: read-out: EC50
T2 sequence (P19793 whole entry): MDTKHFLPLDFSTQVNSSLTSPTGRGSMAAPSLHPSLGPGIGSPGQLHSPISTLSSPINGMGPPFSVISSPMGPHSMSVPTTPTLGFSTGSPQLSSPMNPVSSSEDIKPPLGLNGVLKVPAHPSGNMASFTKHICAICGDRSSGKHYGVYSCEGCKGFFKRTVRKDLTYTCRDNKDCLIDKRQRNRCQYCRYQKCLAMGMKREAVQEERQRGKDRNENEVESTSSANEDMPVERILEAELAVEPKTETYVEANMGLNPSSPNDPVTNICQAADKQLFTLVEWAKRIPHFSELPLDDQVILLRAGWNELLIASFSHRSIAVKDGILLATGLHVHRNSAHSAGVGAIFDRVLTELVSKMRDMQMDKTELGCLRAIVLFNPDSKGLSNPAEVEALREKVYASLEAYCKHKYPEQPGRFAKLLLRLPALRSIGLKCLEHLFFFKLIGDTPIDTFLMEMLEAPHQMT

[3] = target: T3, Retinoic acid receptor RXR-beta (Homo sapiens) (UniProt P28702); experiment: Agonist activity at recombinant human pFA-CMV fused RXRbeta LBD expressed in HEK293T cells transfected with pFR-luciferase plasmid and pRL-SV40 plasmid at 10 uM incubated for 14 to 16 hrs by dual glo luciferase reporter gene assay; assay type: cell-based; conditions: HEK-293T
T3 sequence (whole entry): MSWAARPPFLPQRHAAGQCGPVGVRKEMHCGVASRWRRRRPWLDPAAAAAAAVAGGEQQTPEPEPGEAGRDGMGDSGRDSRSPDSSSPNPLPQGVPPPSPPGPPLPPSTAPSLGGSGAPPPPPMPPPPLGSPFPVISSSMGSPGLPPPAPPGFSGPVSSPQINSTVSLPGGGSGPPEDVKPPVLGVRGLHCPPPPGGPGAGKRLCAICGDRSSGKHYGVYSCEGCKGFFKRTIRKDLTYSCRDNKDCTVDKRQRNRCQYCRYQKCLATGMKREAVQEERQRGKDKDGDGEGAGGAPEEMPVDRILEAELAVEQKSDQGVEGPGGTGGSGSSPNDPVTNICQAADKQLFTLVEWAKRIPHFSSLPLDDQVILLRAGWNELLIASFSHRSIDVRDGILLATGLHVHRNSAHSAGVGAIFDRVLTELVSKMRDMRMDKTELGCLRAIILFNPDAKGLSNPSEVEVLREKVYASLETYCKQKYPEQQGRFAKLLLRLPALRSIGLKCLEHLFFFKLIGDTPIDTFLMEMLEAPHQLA

[4] = target: T2, Retinoic acid receptor RXR-alpha; experiment: Binding affinity to RXRalpha LBD (unknown origin) by isothermal titration calorimetry
[5] = target: T4, Retinoic acid receptor RXR-gamma (Homo sapiens) (UniProt P48443); experiment: Agonist activity at recombinant human pFA-CMV fused RXRgamma LBD expressed in HEK293T cells transfected with pFR-luciferase plasmid and pRL-SV40 plasmid at 10 uM incubated for 14 to 16 hrs by dual glo luciferase reporter gene assay; assay type: cell-based; conditions: HEK-293T
T4 sequence (whole entry): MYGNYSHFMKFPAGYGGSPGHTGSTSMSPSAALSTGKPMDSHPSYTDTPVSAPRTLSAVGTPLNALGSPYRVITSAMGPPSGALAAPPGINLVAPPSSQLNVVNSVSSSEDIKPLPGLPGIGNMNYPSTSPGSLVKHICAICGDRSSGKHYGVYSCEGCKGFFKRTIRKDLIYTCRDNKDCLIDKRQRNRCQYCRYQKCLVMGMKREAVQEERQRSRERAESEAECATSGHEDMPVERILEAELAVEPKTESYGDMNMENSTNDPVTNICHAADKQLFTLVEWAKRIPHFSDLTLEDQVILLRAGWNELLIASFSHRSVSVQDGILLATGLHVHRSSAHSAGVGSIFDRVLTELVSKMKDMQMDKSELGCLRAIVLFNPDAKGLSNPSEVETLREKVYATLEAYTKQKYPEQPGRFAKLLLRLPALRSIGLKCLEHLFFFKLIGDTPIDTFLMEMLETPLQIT

[6] = target: T1, Peroxisome proliferator-activated receptor gamma (Homo sapiens); experiment: Agonist activity at PPARgamma in human HepG2 cells with THRA knockdown assessed as induction of CD36 mRNA expression incubated for 8 hrs by qPCR analysis; assay type: cell-based
[7] = target: T5, Retinoic acid receptor RXR-alpha (Homo sapiens) (UniProt P19793); experiment: Agonist activity at recombinant human pFA-CMV fused RXRalpha LBD expressed in HEK293T cells transfected with pFR-luciferase plasmid and pRL-SV40 plasmid incubated for 14 to 16 hrs by dual glo luciferase reporter gene assay relative to control; assay type: cell-based; conditions: HEK-293T
T5 sequence (whole entry): T2 sequence (P19793 whole entry)

[8] = target: T6, Peroxisome proliferator-activated receptor gamma (Homo sapiens, UniProt P37231); experiment: Agonist activity at recombinant human pFA-CMV fused PPARgamma expressed in HEK293T cells transfected with pFR-luciferase plasmid and pRL-SV40 plasmid incubated for 14 to 16 hrs by dual glo luciferase reporter gene assay; assay type: cell-based, HEK-293T
T6 sequence (P37231 whole entry): T1 sequence (whole entry)

[9] = target: T6, Peroxisome proliferator-activated receptor gamma; experiment: Binding affinity to recombinant PPARgamma LBD (unknown origin) by isothermal titration calorimetry
[10] = target: T5, Retinoic acid receptor RXR-alpha (Homo sapiens); experiment: Agonist activity at recombinant human pFA-CMV fused RXRalpha LBD expressed in HEK293T cells transfected with pFR-luciferase plasmid and pRL-SV40 plasmid at 10 uM incubated for 14 to 16 hrs by dual glo luciferase reporter gene assay; assay type: cell-based; conditions: HEK-293T
[11] = target: T1, Peroxisome proliferator-activated receptor gamma (Homo sapiens); experiment: Agonist activity at recombinant human pFA-CMV fused PPARgamma LBD expressed in HEK293T cells transfected with pFR-luciferase plasmid and pRL-SV40 plasmid at 0.1 uM incubated for 14 to 16 hrs in presence of PPARgamma antagonist GW9662 by dual glo luciferase reporter gene assay; assay type: cell-based; conditions: HEK-293T

Structure (SMILES) | Activity [1] | EC50 [2] | Activity [3] | Kd [4] | Activity [5] | Activity [6] | fold change (FC) [7] | EC50 [8] | Kd [9] | Activity [10] | Activity [11]
N[C@@H](Cc1cc(I)c(Oc2cc(I)c(O)c(I)c2)c(I)c1)C(=O)O [LEVOTHYROXINE] | Dose-dependent effect | 15400 nM | Active | 930 nM | Active | Dose-dependent effect | 7.4 | 12000 nM | 400 nM | Active | –
O=C(O)Cc1cc(I)c(Oc2cc(I)c(O)c(I)c2)c(I)c1 [TETRAC] | Dose-dependent effect | 1320 nM | Active | 1500 nM | Active | Dose-dependent effect | 9.1 | 100 nM | 110 nM | Active | inactive
